# Results: ChEMBL document CHEMBL5500427, “Discovery of New Phenyltetrazolium Derivatives as Ferroptosis Inhibitors for Treating Ischemic Stroke: An Example Development from Free Radical Scavengers” (J Med Chem, 2024)
# Active and inactive are the calls of the source. The calls are words filed in the database; no cut-off is given here.
# Experiments:
# HT-1080 [1] = assay: Anti-ferroptotic activity against Erastin-induced human HT-1080 cells assessed as inhibition of ferroptosis incubated for 72 hrs by CCK-8 assay; type: functional, cell-based; details: Homo sapiens, HT-1080, 72 h; read-out: IC50
# HT-1080 [2] = assay: Anti-ferroptotic activity against Erastin-induced human HT-1080 cells assessed as inhibition of ferroptosis incubated for 24 hrs by Alamar blue dye based assay; type: functional, cell-based; details: HT-1080, 24 h
# [3] = Antioxidant activity assessed as DPPH radical scavenging activity at 0.4 uM incubated for 30 mins by Beckman Coulter analysis relative to control; type: functional
# [4] = Cytotoxicity against human L02 cells incubated for 2 hrs by CCK-8 assay; type: toxicity, cell-based
# N2a [5] = assay: Cytoprotective activity against oxygen-glucose deprivation/reoxygenation induced cell injury in mouse N2a cells assessed as increase in cell viability at 1 uM incubated for 2 hrs under hypoxia condition and measured after 24 hrs; type: functional, cell-based; details: time 26.0 hrs
# MEF = assay: Anti-ferroptotic activity against tamoxifen induced Gpx4 knockout mouse MEF cells assessed as inhibition of ferroptosis incubated for 72 hrs by AquaBluerTM assay; type: functional, cell-based
# [6] = Drug concentration in ICR mouse liver at 1 mg/kg,iv administration measured after 1 hrs by LC-MS/MS analysis; type: ADME, organism-based; details: in vivo
# [7] = Drug concentration in ICR mouse brain at 1 mg/kg,iv administration measured after 0.5 hrs by LC-MS/MS analysis; type: ADME, organism-based; details: in vivo
# Mus musculus [8] = assay: Neuroprotective activity against transient middle cerebral artery occlusion induced ischemia stroke female SPF C57 mouse model assessed as reduction in cerebral infarct volume at 5 mg/kg,iv measured after 24 hrs by TTC staining based analysis relative to control; type: functional; design: scale not given: the % may be the effect or the level left
# [9] = Drug concentration in ICR mouse kidney at 1 mg/kg,iv administration measured after 1 hrs by LC-MS/MS analysis; type: ADME, organism-based; details: in vivo
# HT-1080 [10] = assay: Anti-ferroptotic activity against Erastin-induced ferroptosis in human HT-1080 cells assessed as inhibition of lipid ROS production at 10 uM incubated for 24 hrs by C11-BODIPY 581/591 based flow cytometry relative to control; type: functional; details: HT-1080, 24 h, values are per cent of control
# [11] = Drug concentration in ICR mouse lung at 1 mg/kg,iv administration measured after 0.083 hrs by LC-MS/MS analysis; type: ADME, organism-based; details: in vivo
# N2a [12] = assay: Cytoprotective activity against oxygen-glucose deprivation/reoxygenation induced cell injury in mouse N2a cells assessed as upregulation of GPX4 expression at 1 uM incubated for 2 hrs under hypoxia condition and measured after 24 hrs by Western blotting analysis; type: functional, cell-based; details: time 26.0 hrs
# HT-1080 [13] = assay: Anti-ferroptotic activity against Erastin-induced ferroptosis in human HT-1080 cells assessed as inhibition of lipid ROS production at 0.5 uM incubated for 24 hrs by C11-BODIPY 581/591 based flow cytometry relative to control; type: functional
# [14] = Cytotoxicity against human H6C7 cells incubated for 2 hrs by CCK-8 assay; type: toxicity, cell-based; details: h6c7, 2 h
# Mus musculus [15] = assay: Neuroprotective activity against transient middle cerebral artery occlusion induced ischemia stroke female SPF C57 mouse model assessed as upregulation of SLC7A11 expression at 5 mg/kg,iv measured after 24 hrs by Western blotting analysis; type: functional, organism-based
# [16] = Drug concentration in ICR mouse kidney at 1 mg/kg,iv administration measured after 0.5 hrs by LC-MS/MS analysis; type: ADME, organism-based; details: in vivo
# [17] = Drug concentration in ICR mouse lung at 1 mg/kg,iv administration measured after 0.5 hrs by LC-MS/MS analysis; type: ADME, organism-based; details: in vivo
# [18] = Drug concentration in ICR mouse liver at 1 mg/kg,iv administration measured after 0.5 hrs by LC-MS/MS analysis; type: ADME, organism-based; details: in vivo
# Mus musculus [19] = assay: Neuroprotective activity against transient middle cerebral artery occlusion induced ischemia stroke female SPF C57 mouse model assessed as reduction in neurological deficit score at 5 mg/kg,iv measured after 24 hrs; type: functional
# [20] = Drug concentration in ICR mouse kidney at 1 mg/kg,iv administration measured after 0.25 hrs by LC-MS/MS analysis; type: ADME, organism-based; details: in vivo
# [21] = Tmax in ICR mouse at 1 mg/kg,iv administration measured upto 24 hrs by LC-MS/MS analysis; type: ADME, organism-based; details: in vivo
# [22] = Drug concentration in ICR mouse kidney at 1 mg/kg,iv administration measured after 0.083 hrs by LC-MS/MS analysis; type: ADME, organism-based; details: in vivo
# [23] = Apparent permeability of compound at 10 uM incubated for 16 hrs by PAMPA based LC-MS/MS analysis; type: ADME
# [24] = AUC (0 to infinity) in ICR mouse at 1 mg/kg,iv administration measured upto 24 hrs by LC-MS/MS analysis; type: ADME, organism-based; details: in vivo
# [25] = Drug concentration in ICR mouse brain at 1 mg/kg,iv administration measured after 0.25 hrs by LC-MS/MS analysis; type: ADME, organism-based; details: in vivo
# [26] = Drug concentration in ICR mouse liver at 1 mg/kg,iv administration measured after 0.25 hrs by LC-MS/MS analysis; type: ADME, organism-based; details: in vivo
# N2a [27] = assay: Cytoprotective activity against oxygen-glucose deprivation/reoxygenation induced cell injury in mouse N2a cells assessed as upregulation of SLC7A11 expression at 1 uM incubated for 2 hrs under hypoxia condition and measured after 24 hrs by Western blotting analysis; type: functional, cell-based; details: time 26.0 hrs
# [28] = Half life in ICR mouse at 1 mg/kg,iv administration measured upto 24 hrs by LC-MS/MS analysis; type: ADME, organism-based; details: in vivo
# [29] = Drug concentration in ICR mouse liver at 1 mg/kg,iv administration measured after 0.083 hrs by LC-MS/MS analysis; type: ADME, organism-based; details: in vivo
# HEK293 = assay: Cytotoxicity against human HEK293 cells incubated for 2 hrs by CCK-8 assay; type: toxicity, cell-based; details: hek293, 2 h
# [30] = Cmax in ICR mouse at 1 mg/kg,iv administration measured upto 24 hrs by LC-MS/MS analysis; type: ADME, organism-based; details: in vivo
# Mus musculus [31] = assay: Neuroprotective activity against transient middle cerebral artery occlusion induced ischemia stroke female SPF C57 mouse model assessed as upregulation of GPX expression at 5 mg/kg,iv measured after 24 hrs by Western blotting analysis; type: functional, organism-based
# [32] = AUC (0 to t) in ICR mouse at 1 mg/kg,iv administration measured upto 24 hrs by LC-MS/MS analysis; type: ADME, organism-based; details: in vivo
# [33] = Drug concentration in ICR mouse brain at 1 mg/kg,iv administration measured after 0.083 hrs by LC-MS/MS analysis; type: ADME, organism-based; details: in vivo
# [34] = Drug concentration in ICR mouse lung at 1 mg/kg,iv administration measured after 0.25 hrs by LC-MS/MS analysis; type: ADME, organism-based; details: in vivo
# Mus musculus [35] = assay: Neuroprotective activity against transient middle cerebral artery occlusion induced ischemia stroke female SPF C57 mouse model assessed as reduction in cerebral edema at 5 mg/kg,iv measured after 24 hrs; type: functional, organism-based
smiles,measurement,setting,value
O=C1c2c(O)cc(O)cc2O[C@H](c2ccc(O)c(O)c2)[C@H]1O [(+)-TAXIFOLIN],IC50,HT-1080 [1],> 10000 nM
COc1cc(NC2CCCCC2)c(N)cc1-c1nnn(C)n1,IC50,HT-1080 [1],801 nM
CN(c1ccc(-c2nnn(C)n2)cc1)C1CCCCC1,IC50,HT-1080 [1],> 10000 nM
Cc1cc(NC2CCCCC2)ccc1-c1nnn(C)n1,IC50,HT-1080 [1],990 nM
CCCCCCCCNc1ccc(-c2nnn(C)n2)cc1N,IC50,HT-1080 [1],497 nM
Cn1nnc(-c2ccc(NC3CCCCC3)c(N)c2)n1,IC50,HT-1080 [1],30 nM
COc1ccc(Nc2ccc(-c3nnn(C)n3)cc2NC2CCCCC2)cc1,IC50,HT-1080 [1],81 nM
Cn1nnc(-c2ccc(NC3CCCCC3)cc2C(F)(F)F)n1,IC50,HT-1080 [1],> 1000 nM
CCOC(=O)c1ccc(NC2CCCCC2)c(NCc2ccccc2)c1,IC50,HT-1080 [2],6 nM
Cn1nnc(-c2cc(N)c(NC3CCCCC3)cc2F)n1,inhibition,[3],35.3%
same,IC50 at 2 h,[4],12300 nM
same,Activity,N2a [5],Active
same,IC50,HT-1080 [1],49 nM
CCn1nnc(-c2ccc(NC3CCCCC3)cc2)n1,IC50,HT-1080 [1],8510 nM
Clc1cccc(CNC2=Nc3ccccc3NC23CCNCC3)c1,IC50,MEF,22 nM
COc1ccc(Nc2ccc(-c3nnn(C)n3)cc2NC2CCCCC2)cn1,IC50,HT-1080 [1],75 nM
Cn1nnc(-c2c(F)cc(NC3CCCCC3)cc2F)n1,IC50,HT-1080 [1],> 1000 nM
Cc1cc(NC2CCCCC2)c(N)cc1-c1nnn(C)n1,IC50,HT-1080 [1],71 nM
Cn1nnc(-c2cnc(NC3CCCCC3)s2)n1,IC50,HT-1080 [1],> 1000 nM
Cn1nnc(-c2ccc(N)c(NC3CCCCC3)c2)n1,Ct,[6],0.02 mg/kg
same,Ct,[7],0.02 mg/kg
same,Activity,Mus musculus [8],12.03%
same,Ct,[9],0.03 mg/kg
same,inhibition,[3],41.3%
same,"response, % of control at 10 µM",HT-1080 [10],0.57%
same,Ct,[11],0.37 mg/kg
same,Activity,N2a [12],Active
same,inhibition at 0.5 µM,HT-1080 [13],0.3%
same,Activity,[14],Toxic
same,Activity,Mus musculus [15],Active
same,Ct,[16],0.12 mg/kg
same,Ct,[17],0.1 mg/kg
same,Ct,[18],0.09 mg/kg
same,Activity,Mus musculus [19],2
same,Ct,[20],0.38 mg/kg
same,Tmax,[21],4.8 min
same,Activity,N2a [5],Active
same,Ct,[22],0.41 mg/kg
same,"Papp at 16 h, 10 µM",[23],3.89 ×10⁻⁶ cm/s
same,AUC(0-inf),[24],95.6 ng·h/mL
same,Ct,[25],0.04 mg/kg
same,Ct,[26],0.24 mg/kg
same,IC50,HT-1080 [1],22 nM
same,Activity,N2a [27],Active
same,half-life,[28],6 min
same,Ct,[29],0.32 mg/kg
same,Activity,HEK293,Toxic
same,Cmax,[30],367 ng/mL
same,Activity,Mus musculus [31],Active
same,AUC(0-t) at 24 h,[32],91.5 ng·h/mL
same,Ct,[33],0.09 mg/kg
same,Ct,[34],0.19 mg/kg
same,Activity,Mus musculus [35],Active
Cn1nnc(-c2ccc(NC3CCCCC3)cc2F)n1,IC50,HT-1080 [1],> 1000 nM
Cn1nnc(-c2ccc(NC3CCCCC3)cc2Cl)n1,IC50,HT-1080 [1],> 1000 nM
